Converted amounts (≈) assume the structure as drawn. Structures can show the parent of a compound that is named as a salt. Where two headings read alike, the source gives them in different places. Bounds are passed on as bounds.

Data set [1] deals with T1, hURAT1 (Homo sapiens, UniProt Q96S37).
T1 construct: expressed in transfected cells; host or cells: HEK293 (human kidney cell line), transient transfection with Fugene6
T1 sequence (Q96S37 1-553): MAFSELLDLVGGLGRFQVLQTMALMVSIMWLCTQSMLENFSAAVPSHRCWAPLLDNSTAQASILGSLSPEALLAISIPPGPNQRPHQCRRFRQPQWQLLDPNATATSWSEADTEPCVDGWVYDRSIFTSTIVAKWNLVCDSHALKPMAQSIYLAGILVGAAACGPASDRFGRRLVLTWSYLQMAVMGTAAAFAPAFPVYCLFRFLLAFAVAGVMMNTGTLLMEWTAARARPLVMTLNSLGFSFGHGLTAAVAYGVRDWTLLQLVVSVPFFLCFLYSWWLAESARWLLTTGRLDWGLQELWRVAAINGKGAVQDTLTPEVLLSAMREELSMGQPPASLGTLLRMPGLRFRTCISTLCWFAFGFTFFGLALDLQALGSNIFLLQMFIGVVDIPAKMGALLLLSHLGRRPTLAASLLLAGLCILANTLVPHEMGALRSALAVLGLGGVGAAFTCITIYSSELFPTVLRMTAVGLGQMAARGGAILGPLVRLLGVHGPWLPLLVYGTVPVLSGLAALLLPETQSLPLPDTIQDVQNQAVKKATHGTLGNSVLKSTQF
Put plainly: Test for inhibiting urate reuptake activity via hURAT1 (uric acid transport assay in hURAT1-overexpressed HEK293 cell line). Type of data set: cell-based. The conditions noted are these: hURAT1-overexpressed HEK293 cells, [14C]-uric acid uptake, 100 μM uric acid; read-out: IC50 (μM) hURAT, level of uric acid reuptake inhibition. The procedure:
Test for Inhibiting Urate Reuptake Activity Via hURAT1
[hURAT1 Overexpression by Transient Transfection in Human Kidney Cell Line]
A human kidney cell line, HEK293 was incubated by using OptiMEM medium in 100 mm dish at (3*10^6 cells) for 24 hours. In order for the expression of hURAT1, a transfection mixture solution (Fugene6 18 μl:hURAT1 DNA 6 μg=3:1, in 600 μl OptiMEM medium/dish) was prepared and kept for 15 minutes at room temperature. To each dish, 600 μl of the mixture solution was injected and then incubated in 37[…] cell incubator for 24 hours. The hURAT1-overexpressed HEK293 cell line was trypsinized and cells were harvested. Cells were resuspended in medium and seeded at 6*10^5 cells/well and incubated for 24 hours in 24-well plate which was surface-coated with Poly-D-Lysine.
[Uric Acid Transport Assay in hURAT1-Overexpressed HEK293 Cell Line]
For each concentration, the stock sample solution was diluted in PBS (1 μl in 800 μl of PBS) as 1.25 fold concentrated working sample solution to obtain final concentrations of 0.01, 0.1, 1 and 10 μM. The hURAT1-overexpressed cell line was washed with 1 ml of PBS. After washing, PBS was discarded and the sample solution was diluted by 1.25 fold with PBS. Preincubation of cells with 200 μl/well of sample solution made above was conducted for 30 minutes in 37[…] cell incubator. After the incubation, each well was treated with 50 μl of PBS containing 500 μM [^14C]-uric acid (final 100 μM of uric acid/well). Cells were incubated for 2 minutes. The cells were washed twice with 1 ml of PBS.
To measure the uric acid uptake, each well was treated with 150 μl of M-per buffer (PIERCE) and kept in 37° C. cell incubator for 30 minutes to make cell lysates. 150 μl of cell lysates was transferred into test tube and 4 ml of scintillation cocktail was added. CPM value of [^14C]-uric acid absorbed into cells was detected using liquid scintillation counter. IC50 for the inhibition of uric acid uptake by each test sample was analyzed by computational numerical processing.

Data set [2] in a line: Test for solubility according to pH. Type of data set: physicochemical. The conditions noted are these: 37° C. 2 hours; for solubility at 2 h: thermodynamic from solid.
Description: 2.0 g of sodium chloride was dissolved in 7.0 mL of hydrochloric acid and water to make the total volume of 1000 mL. This solution was colorless and clear. Its pH was about 1.2.
To 250 mL of 0.2 mol/L potassium dihydrogen phosphate solution, 118 mL of 0.2 mol/L sodium hydroxide solution and water were added to make the total volume of 1000 mL. This solution was colorless and clear. Its pH was about 6.8.
For the compounds of present invention prepared in the examples, the test samples were prepared in each of the first and second solutions with 2 mg/mL concentration. This test sample solution was agitated for 10 seconds, sonicated for 1 minute and heated at 37° C. for 2 hours. The heated test sample solution was filtered to remove undissolved compounds therein. From filtered solution, 100 μl of the completely dissolved solution was sampled and 100 μl of acetonitrile was added thereto to make test sample solution. For each analysis of test sample solution, the solubility was measured by using liquid chromatography.
For data set [3], the target named is CYP2C9 (Homo sapiens, UniProt P11712). Nature of the data set: biochemical.
Sequence of CYP2C9 (P11712 whole entry): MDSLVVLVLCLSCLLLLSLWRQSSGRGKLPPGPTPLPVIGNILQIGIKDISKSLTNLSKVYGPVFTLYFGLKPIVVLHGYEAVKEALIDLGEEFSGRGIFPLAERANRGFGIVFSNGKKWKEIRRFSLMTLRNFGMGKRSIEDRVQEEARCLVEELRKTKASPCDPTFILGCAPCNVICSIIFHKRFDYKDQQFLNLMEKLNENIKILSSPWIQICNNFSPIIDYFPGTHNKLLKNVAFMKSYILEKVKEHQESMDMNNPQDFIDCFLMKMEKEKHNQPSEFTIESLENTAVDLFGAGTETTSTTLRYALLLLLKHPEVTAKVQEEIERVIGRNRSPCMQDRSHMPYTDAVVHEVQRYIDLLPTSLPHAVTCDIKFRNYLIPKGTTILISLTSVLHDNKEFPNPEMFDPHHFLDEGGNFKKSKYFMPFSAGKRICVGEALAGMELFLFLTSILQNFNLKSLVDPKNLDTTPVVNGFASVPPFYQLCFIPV
The mark [4] stands for this setting: 37 °C, pH 1.2, simulated gastric fluid, first solution pH about 1.2, 2 mg/mL, read-out: Solubility (μg/mL) pH 1.2.
[5] abbreviates: 37 °C, pH 6.8, aqueous buffer, second solution pH about 6.8, 2 mg/mL, read-out: Solubility (μg/mL) pH 6.8.

On to `Br.O=C(c1cc(Cl)c(O)c([N+](=O)[O-])c1)N1CCOc2cnccc21` [Compound 17, (3-chloro-4-hydroxy-5-nitro-phenyl)-(2,3-dihydro-pyrido[3,4-b][1,4]oxazin-1-yl)-methanone bromic acid salt], for which the IC50 (in general, the concentration at which inhibition is half-maximal) in data set [1] is 1 µM. Also, the solubility at 2 h was 1610 µg/mL in data set [2] (setting [4]) and 1890 µg/mL in data set [2] (setting [5]).
Regarding `O=C(c1ccc(O)c(Cl)c1)N1CCOc2ccncc21` [Compound 37, (3-chloro-4-hydroxy-phenyl)-(2,3-dihydro-pyrido[4,3-b][1,4]oxazin-4-yl)-methanone], the IC50 in data set [1] is 0.212 µM; in data set [3], greater than 20000 nM. For the same molecule, the results for the solubility at 2 h in data set [2] (setting [4]) and in data set [2] (setting [5]) were 1930 µg/mL (≈ 6640 µM) and 114 µg/mL (≈ 393 µM), respectively.
In the case of `O=C(c1cc(Cl)c(O)c([N+](=O)[O-])c1)N1CCOc2ccncc21` [Compound 14, (3-chloro-4-hydroxy-5-nitro-phenyl)-(2,3-dihydro-pyrido[4,3-b][1,4]oxazin-4-yl)-methanone], the IC50 in data set [1] stood at 0.126 µM; in data set [3], 16600 nM. Besides, the solubility at 2 h in data set [2] (setting [4]) is 1480 µg/mL (≈ 4410 µM); in data set [2] (setting [5]), 747 µg/mL (≈ 2230 µM).
Take `O=C(c1cc(Cl)c(O)c(Cl)c1)N1CCOc2cnccc21` [Compound 15, (3,5-dichloro-4-hydroxy-phenyl)-(2,3-dihydro-pyrido[3,4-b][1,4]oxazin-1-yl)-methanone bromic acid salt]: the IC50 in data set [1] came out at 0.458 µM; in data set [3], 4500 nM. Also, in data set [2] (setting [4]), the solubility at 2 h was 1510 µg/mL. Besides, in data set [2] (second solution pH about 6.8, 2 mg/mL), the “Solubility (μg/mL) pH 6.8” value amounted to 453 μg/mL.
Consider `N#Cc1cnc2c(c1)N(C(=O)c1cc(Br)c(O)c(Br)c1)CCO2` [Compound 47-2, 1-(3,5-dibromo-4-hydroxy-benzoyl)-2,3-dihydro-1H-pyrido[2,3-b][1,4]oxazin-7-carbonitrile], for which the IC50 is 0.0179 µM in data set [1] and greater than 20000 nM in data set [3]. Also, the results for the solubility at 2 h in data set [2] (setting [4]) and in data set [2] (setting [5]) were 6.4 µg/mL (≈ 14.6 µM) and 330 µg/mL (≈ 751 µM), respectively.
The like results for `O=C(c1cc(Br)c(O)c(Br)c1)N1CCOc2ncc(C(F)(F)F)cc21` [Compound 22-2, (3,5-dibromo-4-hydroxy-phenyl)-(7-trifluoromethyl-2,3-dihydro-pyrido[2,3-b][1,4]oxazin-1-yl)-methanone] were, in that order, 0.0043 µM, 9450 nM, less than 0.1 µg/mL and 153 µg/mL (≈ 317 µM).
The like results for `O=C(c1cc(F)c(O)c(F)c1)N1CCOc2ccncc21` [Compound 29, (3,5-difluoro-4-hydroxy-phenyl)-(2,3-dihydro-pyrido[4,3-b][1,4]oxazin-4-yl)-methanone] were, in that order, 0.235 µM, greater than 20000 nM, 1090 µg/mL (≈ 3720 µM) and 382 µg/mL (≈ 1310 µM).
The like results for `Cc1ccc2c(n1)OCCN2C(=O)c1cc(Br)c(O)c(Br)c1` [Compound 7, (3,5-dibromo-4-hydroxy-phenyl)-(6-methyl-2,3-dihydro-pyrido[2,3-b][1,4]oxazin-1-yl)-methanone] were, in that order, 0.3 µM, greater than 20000 nM, 106 µg/mL (≈ 247 µM) and 109 µg/mL (≈ 255 µM).
On to `O=C(c1cc(Br)c(O)c(Br)c1)N1CCOc2ncccc21` [Compound 1, (3,5-dibromo-4-hydroxy-phenyl)-(2,3-dihydro-pyrido[2,3-b][1,4]oxazin-1-yl)-methanone], for which the IC50 in data set [1] is 0.079 µM; in data set [3] it was 12100 nM. Also, the results for the solubility at 2 h in data set [2] (setting [4]) and in data set [2] (setting [5]) were 56.1 µg/mL (≈ 135 µM) and 277 µg/mL (≈ 669 µM), respectively.
As for `O=C(c1cc(Br)c(O)c(Br)c1)N1CCOc2ccnc(Cl)c21` [Compound 30, (5-chloro-2,3-dihydro-pyrido[4,3-b][1,4]oxazin-4-yl)-(3,5-dibromo-4-hydroxy-phenyl)-methanone], the IC50 in data set [1] is 0.028 µM; in data set [3], greater than 40000 nM. The results for the solubility at 2 h in data set [2] (setting [4]) and in data set [2] (setting [5]) were 7.2 µg/mL (≈ 16.1 µM) and 332 µg/mL (≈ 740 µM), respectively.
Turning to `Cc1cnc2c(c1)N(C(=O)c1cc(Br)c(O)c(Br)c1)CCO2` [Compound 27-2, (3,5-dibromo-4-hydroxy-phenyl)-(7-methyl-2,3-dihydro-pyrido[2,3-b][1,4]oxazin-1-yl)-methanone], the 50% inhibitory concentration (IC50) in data set [1] is 0.012 µM; in data set [3] it was greater than 20000 nM. The results for the solubility at 2 h in data set [2] (setting [4]) and in data set [2] (setting [5]) were 207 µg/mL (≈ 484 µM) and 579 µg/mL (≈ 1350 µM), respectively.
On the same counts, the results for `CC1(C)CN(C(=O)c2cc(Br)c(O)c(Br)c2)c2cnccc2O1` [Compound 8, (3,5-dibromo-4-hydroxy-phenyl)-(2,2-dimethyl-2,3-dihydro-pyrido[4,3-b][1,4]oxazin-4-yl)-methanone] are 0.353 µM, greater than 20000 nM, 986 µg/mL (≈ 2230 µM) and 344 µg/mL (≈ 778 µM).
On the same counts, the results for `O=C(c1cc(Br)c(O)c(Br)c1)N1CCOc2ncncc21` [Compound 62, (3,5-dibromo-4-hydroxy-phenyl)-(6,7-dihydro-pyrimido[4,5-b][1,4]oxazin-5-yl)-methanone] are 0.128 µM, greater than 20000 nM, 34.8 µg/mL (≈ 83.8 µM) and 624 µg/mL (≈ 1500 µM).
The like results for `O=C(c1cc(Cl)c(O)c(Cl)c1)N1CCOc2ccncc21` [Compound 39, (3,5-dichloro-4-hydroxy-phenyl)-(2,3-dihydro-pyrido[4,3-b][1,4]oxazin-4-yl)-methanone] were, in that order, 0.0884 µM, greater than 20000 nM, 1340 µg/mL (≈ 4120 µM) and 480 µg/mL (≈ 1480 µM).
Take `O=C(c1cc(Cl)c(O)c([N+](=O)[O-])c1)N1CCOc2cnccc21` [Compound 36, (3-chloro-4-hydroxy-5-nitro-phenyl)-(2,3-dihydro-pyrido[3,4-b][1,4]oxazin-1-yl)-methanone]: the IC50 in data set [1] was 0.175 µM; in data set [3] it was 1930 nM. In addition, the figures for the solubility at 2 h in data set [2] (setting [4]) and in data set [2] (setting [5]) were 1560 µg/mL (≈ 4650 µM) and 743 µg/mL (≈ 2210 µM), respectively.
Turning to `Br.O=C(c1cc(Cl)c(O)c(Cl)c1)N1CCOc2ccncc21` [Compound 13, (3,5-dichloro-4-hydroxy-phenyl)-(2,3-dihydro-pyrido[4,3-b][1,4]oxazin-4-yl)-methanone bromic acid salt], the results for the IC50 in data set [1] and in data set [3] were 0.337 µM and greater than 60000 nM, respectively. Moreover, the solubility at 2 h in data set [2] (pH 1.2, simulated gastric fluid, first solution pH about 1.2, 2 mg/mL, read-out: Solubility (μg/mL) pH 1.2) was 1400 µg/mL; in data set [2] (pH 6.8, aqueous buffer, second solution pH about 6.8, 2 mg/mL, read-out: Solubility (μg/mL) pH 6.8), 847 µg/mL.
Consider `O=C(c1cc(Br)c(O)c(Br)c1)N1CCOc2ncc(-c3cccnc3)cc21` [Compound 52, (3,5-dibromo-4-hydroxy-phenyl)-(7-pyridin-3-yl-2,3-dihydro-pyrido[2,3-b][1,4]oxazin-1-yl]-methanone], for which the IC50 is 0.0103 µM in data set [1] and greater than 20000 nM in data set [3].
As to `COc1c(Br)cc(C(=O)N2CCOc3ncc(-c4cccc(N(C)C)c4)cc32)cc1Br` [Compound 48, (3,5-dibromo-4-methoxy-phenyl)-[7-(3-dimethylamino-phenyl)-2,3-dihydro-pyrido[2,3-b][1,4]oxazin-1-yl]-methanone], the values for the IC50 in data set [1] and in data set [3] were 0.0933 µM and 1680 nM, respectively.

Source of the values: US8394792B2, “Heterocyclic derivatives” (C&C Research Laboratories, priority 2008, dated 2013).
